Data published in ChEMBL document CHEMBL3991601, “The target landscape of clinical kinase drugs” (Science, 2017).
Active and inactive are the calls of the source. For most assays here, no stated cut-off is given here; in the data, actives have a measured Kd and inactives only a lower limit.

Legend:
ADP/ATP translocase 2 = molecular target: T1, ADP/ATP translocase 2 (Homo sapiens, UniProt P05141)
T1 sequence (P05141 whole entry): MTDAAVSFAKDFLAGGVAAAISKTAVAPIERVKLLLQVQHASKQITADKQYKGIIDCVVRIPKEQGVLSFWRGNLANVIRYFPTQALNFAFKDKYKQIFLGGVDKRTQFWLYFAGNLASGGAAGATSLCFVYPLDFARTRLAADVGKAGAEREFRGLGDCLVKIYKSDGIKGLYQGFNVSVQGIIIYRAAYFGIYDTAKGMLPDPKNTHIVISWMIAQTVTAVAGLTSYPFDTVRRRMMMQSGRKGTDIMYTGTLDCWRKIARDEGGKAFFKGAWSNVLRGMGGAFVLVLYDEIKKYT

Ephrin type-A receptor 4 = Ephrin type-A receptor 4 (Homo sapiens, UniProt P54764)
[1] = molecular target: T2, Non-receptor tyrosine-protein kinase TNK1 (Homo sapiens, UniProt Q13470)
T2 sequence (Q13470 whole entry): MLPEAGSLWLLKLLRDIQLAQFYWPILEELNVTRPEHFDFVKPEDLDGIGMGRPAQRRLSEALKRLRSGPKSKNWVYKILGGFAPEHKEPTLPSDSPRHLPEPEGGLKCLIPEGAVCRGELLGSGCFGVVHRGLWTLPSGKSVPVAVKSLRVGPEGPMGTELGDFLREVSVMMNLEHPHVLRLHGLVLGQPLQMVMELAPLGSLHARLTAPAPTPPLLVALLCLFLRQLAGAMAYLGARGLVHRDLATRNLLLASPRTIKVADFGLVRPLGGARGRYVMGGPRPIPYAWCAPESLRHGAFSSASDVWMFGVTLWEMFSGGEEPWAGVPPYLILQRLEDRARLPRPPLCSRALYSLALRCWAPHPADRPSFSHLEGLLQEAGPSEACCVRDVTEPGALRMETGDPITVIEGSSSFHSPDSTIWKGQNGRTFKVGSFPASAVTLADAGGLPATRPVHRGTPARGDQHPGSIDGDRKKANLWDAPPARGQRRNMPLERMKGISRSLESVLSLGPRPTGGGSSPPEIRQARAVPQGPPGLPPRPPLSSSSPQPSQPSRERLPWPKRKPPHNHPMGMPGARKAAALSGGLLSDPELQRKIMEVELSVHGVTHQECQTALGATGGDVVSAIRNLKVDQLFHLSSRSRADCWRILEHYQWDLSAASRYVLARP

[2] = molecular target: Ribosomal protein S6 kinase beta-1 (Homo sapiens, UniProt P23443)
[3] = molecular target: Tyrosine-protein kinase Fyn (Homo sapiens, UniProt P06241)
[4] = molecular target: Non-receptor tyrosine-protein kinase TYK2 (Homo sapiens, UniProt P29597)
[5] = molecular target: Calcium/calmodulin-dependent protein kinase kinase 2 (Homo sapiens, UniProt Q96RR4)
[6] = molecular target: T3, Adenine phosphoribosyltransferase (Homo sapiens, UniProt P07741)
T3 sequence (P07741 whole entry): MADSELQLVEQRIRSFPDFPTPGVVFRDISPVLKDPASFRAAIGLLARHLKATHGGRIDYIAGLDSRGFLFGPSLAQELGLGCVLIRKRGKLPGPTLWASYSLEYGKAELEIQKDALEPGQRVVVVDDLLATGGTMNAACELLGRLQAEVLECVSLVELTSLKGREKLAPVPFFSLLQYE

Aurora kinase B = Aurora kinase B (Homo sapiens, UniProt Q96GD4)
[7] = molecular target: T4, EKC/KEOPS complex subunit TP53RK (Homo sapiens, UniProt Q96S44)
T4 sequence (Q96S44 whole entry): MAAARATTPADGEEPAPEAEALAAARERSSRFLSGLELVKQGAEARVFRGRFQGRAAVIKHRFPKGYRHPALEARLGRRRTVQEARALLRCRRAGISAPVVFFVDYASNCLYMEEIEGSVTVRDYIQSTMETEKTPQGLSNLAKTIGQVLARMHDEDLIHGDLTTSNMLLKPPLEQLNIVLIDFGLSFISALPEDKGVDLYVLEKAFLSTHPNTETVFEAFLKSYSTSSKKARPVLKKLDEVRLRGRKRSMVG

[8] = molecular target: Ribosomal protein S6 kinase alpha-4 (Homo sapiens, UniProt O75676)
[9] = molecular target: T5, Serine/threonine-protein kinase Nek3 (Homo sapiens, UniProt P51956)
T5 sequence (P51956 whole entry): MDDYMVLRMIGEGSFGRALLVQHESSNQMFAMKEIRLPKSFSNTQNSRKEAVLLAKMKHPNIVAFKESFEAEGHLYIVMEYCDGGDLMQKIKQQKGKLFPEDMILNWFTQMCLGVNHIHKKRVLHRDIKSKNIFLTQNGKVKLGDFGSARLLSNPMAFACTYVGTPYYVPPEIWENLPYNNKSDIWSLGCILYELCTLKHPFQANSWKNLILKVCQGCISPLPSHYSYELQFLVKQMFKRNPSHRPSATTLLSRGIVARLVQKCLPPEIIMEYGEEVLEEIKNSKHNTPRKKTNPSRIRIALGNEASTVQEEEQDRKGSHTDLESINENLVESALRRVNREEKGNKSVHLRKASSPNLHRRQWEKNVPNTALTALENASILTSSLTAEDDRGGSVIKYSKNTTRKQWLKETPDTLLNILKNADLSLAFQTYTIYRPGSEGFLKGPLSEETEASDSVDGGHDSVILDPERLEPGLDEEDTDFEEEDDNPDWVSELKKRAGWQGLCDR

[10] = molecular target: Mitogen-activated protein kinase 7 (Homo sapiens, UniProt Q13164)
[11] = molecular target: Ribosomal protein S6 kinase alpha-1 (Homo sapiens, UniProt Q15418)
[12] = molecular target: STE20-like serine/threonine-protein kinase (Homo sapiens, UniProt Q9H2G2)
[13] = molecular target: Mitogen-activated protein kinase kinase kinase kinase 5 (Homo sapiens, UniProt Q9Y4K4)
Chain of Mitogen-activated protein kinase kinase kinase kinase 5 (Q9Y4K4 whole entry): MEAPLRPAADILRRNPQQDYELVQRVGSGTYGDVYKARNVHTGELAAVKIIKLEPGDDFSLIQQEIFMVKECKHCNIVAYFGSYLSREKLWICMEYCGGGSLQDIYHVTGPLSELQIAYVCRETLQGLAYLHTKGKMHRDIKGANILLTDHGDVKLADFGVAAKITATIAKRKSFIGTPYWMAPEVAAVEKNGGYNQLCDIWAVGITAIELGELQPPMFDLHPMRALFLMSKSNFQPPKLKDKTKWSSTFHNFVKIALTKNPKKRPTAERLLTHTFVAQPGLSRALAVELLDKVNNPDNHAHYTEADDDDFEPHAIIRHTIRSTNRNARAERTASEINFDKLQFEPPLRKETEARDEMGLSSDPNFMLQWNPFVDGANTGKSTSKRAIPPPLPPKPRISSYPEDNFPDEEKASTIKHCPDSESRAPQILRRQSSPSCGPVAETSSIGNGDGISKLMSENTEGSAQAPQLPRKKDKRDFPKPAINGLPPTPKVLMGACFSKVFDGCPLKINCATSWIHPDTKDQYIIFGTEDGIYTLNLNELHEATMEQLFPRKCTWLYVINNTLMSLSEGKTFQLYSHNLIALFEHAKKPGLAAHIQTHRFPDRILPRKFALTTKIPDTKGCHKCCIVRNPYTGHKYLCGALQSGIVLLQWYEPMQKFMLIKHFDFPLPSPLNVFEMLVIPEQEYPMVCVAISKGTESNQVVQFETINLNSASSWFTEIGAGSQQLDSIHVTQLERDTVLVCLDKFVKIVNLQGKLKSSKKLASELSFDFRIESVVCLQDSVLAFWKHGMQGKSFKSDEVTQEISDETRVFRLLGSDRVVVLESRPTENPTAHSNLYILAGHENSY

Chain of Non-receptor tyrosine-protein kinase TYK2 (P29597 whole entry): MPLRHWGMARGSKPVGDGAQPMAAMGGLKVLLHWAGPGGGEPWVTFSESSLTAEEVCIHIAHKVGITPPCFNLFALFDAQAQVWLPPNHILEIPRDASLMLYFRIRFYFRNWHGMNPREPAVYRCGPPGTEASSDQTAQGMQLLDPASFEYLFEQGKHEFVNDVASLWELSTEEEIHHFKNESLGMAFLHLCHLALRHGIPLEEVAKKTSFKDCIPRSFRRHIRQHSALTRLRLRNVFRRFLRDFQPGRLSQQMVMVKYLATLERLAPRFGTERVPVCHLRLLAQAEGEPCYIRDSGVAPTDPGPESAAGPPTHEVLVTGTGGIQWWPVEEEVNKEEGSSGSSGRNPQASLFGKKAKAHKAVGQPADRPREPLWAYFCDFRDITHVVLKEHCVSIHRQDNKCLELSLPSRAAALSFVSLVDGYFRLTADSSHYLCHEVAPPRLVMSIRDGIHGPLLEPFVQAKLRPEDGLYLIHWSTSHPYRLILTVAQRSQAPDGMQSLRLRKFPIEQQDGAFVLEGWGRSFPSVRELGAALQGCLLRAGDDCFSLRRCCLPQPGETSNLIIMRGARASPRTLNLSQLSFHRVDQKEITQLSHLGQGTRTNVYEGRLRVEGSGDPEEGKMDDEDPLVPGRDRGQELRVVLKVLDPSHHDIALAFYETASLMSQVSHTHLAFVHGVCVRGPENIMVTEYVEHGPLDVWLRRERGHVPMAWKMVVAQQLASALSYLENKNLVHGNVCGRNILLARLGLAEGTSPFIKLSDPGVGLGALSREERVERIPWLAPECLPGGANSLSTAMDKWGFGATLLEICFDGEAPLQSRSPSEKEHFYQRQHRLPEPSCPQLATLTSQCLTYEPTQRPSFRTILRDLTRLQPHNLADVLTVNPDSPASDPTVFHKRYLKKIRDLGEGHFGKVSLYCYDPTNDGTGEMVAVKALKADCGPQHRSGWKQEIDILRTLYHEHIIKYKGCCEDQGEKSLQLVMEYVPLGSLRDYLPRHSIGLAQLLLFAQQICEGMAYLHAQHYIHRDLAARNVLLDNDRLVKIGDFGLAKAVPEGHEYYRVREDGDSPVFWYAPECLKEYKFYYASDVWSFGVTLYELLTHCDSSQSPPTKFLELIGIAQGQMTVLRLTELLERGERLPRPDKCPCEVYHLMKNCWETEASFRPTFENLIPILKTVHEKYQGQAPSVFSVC
Chain of Ribosomal protein S6 kinase beta-1 (P23443 whole entry): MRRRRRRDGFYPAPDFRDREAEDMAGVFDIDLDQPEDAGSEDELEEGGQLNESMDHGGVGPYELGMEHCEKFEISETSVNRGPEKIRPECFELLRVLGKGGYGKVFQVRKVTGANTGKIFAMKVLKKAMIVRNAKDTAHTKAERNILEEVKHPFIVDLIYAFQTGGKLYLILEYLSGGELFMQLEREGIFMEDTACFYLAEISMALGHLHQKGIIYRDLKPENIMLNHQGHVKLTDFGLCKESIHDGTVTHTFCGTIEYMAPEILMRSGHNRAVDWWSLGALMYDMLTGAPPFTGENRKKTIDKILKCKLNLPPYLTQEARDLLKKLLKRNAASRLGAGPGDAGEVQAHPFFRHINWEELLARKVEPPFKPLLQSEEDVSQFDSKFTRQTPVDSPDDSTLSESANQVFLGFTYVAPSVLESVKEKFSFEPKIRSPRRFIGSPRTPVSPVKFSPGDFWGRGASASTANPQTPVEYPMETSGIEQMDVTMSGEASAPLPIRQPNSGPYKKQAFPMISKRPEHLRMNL
Chain of Mitogen-activated protein kinase 7 (Q13164 whole entry): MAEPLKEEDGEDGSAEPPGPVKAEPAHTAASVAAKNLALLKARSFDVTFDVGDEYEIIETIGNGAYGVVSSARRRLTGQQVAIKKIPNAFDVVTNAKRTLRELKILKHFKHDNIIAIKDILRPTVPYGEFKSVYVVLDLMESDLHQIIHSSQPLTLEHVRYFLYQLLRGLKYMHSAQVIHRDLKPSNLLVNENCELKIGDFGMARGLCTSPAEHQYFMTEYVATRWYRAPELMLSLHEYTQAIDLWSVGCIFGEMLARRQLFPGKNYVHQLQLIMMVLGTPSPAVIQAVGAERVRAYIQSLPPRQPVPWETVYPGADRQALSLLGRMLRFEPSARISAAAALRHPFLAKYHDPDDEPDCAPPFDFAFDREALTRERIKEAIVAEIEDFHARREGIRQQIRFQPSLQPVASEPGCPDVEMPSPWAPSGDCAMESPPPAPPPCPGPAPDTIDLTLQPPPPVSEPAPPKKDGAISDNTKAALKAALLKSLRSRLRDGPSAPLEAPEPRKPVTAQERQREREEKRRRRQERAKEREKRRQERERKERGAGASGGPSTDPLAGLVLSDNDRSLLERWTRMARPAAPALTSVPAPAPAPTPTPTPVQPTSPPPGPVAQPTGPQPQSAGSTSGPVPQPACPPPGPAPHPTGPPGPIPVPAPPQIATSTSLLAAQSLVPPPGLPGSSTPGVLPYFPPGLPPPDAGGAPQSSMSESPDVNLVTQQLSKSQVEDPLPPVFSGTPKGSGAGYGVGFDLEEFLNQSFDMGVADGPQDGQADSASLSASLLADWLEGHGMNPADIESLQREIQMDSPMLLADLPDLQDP
Chain of STE20-like serine/threonine-protein kinase (Q9H2G2 whole entry): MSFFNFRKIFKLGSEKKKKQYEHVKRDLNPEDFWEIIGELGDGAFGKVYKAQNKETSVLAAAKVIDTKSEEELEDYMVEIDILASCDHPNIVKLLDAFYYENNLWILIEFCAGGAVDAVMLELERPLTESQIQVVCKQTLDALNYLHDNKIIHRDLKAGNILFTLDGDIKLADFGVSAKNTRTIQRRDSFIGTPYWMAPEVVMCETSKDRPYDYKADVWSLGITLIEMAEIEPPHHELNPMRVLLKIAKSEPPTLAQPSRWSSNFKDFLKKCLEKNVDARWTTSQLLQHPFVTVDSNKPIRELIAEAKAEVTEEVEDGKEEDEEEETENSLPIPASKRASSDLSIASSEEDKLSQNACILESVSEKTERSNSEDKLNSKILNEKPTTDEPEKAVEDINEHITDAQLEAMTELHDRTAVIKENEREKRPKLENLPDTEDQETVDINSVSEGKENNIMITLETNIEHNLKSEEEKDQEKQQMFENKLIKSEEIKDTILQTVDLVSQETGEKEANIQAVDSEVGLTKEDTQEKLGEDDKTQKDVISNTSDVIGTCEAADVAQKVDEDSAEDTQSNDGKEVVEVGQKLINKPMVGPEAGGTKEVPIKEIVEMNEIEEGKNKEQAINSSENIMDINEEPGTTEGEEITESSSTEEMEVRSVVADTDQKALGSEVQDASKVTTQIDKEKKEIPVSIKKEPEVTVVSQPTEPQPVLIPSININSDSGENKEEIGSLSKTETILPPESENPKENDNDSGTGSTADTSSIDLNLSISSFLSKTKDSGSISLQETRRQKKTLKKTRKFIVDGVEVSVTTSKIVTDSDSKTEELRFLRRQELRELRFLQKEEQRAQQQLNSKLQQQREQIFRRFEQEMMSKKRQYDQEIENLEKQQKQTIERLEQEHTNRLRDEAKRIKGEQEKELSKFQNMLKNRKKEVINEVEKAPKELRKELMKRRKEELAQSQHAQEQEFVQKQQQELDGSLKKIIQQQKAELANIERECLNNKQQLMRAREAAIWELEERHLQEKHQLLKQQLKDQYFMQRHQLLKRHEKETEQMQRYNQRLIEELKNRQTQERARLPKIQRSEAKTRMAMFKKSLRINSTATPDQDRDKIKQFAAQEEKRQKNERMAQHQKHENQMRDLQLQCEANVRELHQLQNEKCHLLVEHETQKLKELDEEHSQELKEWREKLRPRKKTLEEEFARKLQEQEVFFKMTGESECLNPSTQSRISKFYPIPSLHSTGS
Chain of Aurora kinase B (Q96GD4 whole entry): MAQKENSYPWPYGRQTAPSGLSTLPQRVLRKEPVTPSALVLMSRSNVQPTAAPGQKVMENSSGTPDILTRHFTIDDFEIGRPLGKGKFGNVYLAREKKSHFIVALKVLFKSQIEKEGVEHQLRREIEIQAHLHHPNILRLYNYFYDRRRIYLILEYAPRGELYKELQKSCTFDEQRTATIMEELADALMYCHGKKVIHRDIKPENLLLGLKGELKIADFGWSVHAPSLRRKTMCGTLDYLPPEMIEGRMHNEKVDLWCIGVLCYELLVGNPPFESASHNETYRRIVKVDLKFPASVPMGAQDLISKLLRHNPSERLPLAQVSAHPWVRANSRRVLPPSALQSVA

Row | SMILES | Kd (ADP/ATP translocase 2) | Kd (Ephrin type-A receptor 4) | Kd [1] | Kd [2] | Kd [3] | Kd [4] | Kd [5] | Kd [6] | Kd (Aurora kinase B) | Kd [7] | Kd [8] | Kd [9] | Kd [10] | Kd [11] | Kd [12] | Kd [13]
1 | COc1cccc(Nc2ncnn3ccc(CN4CC[C@@H](N)[C@H](O)C4)c23)c1 [BMS-690514] | > 30 µM (inactive) | > 30 µM (inactive) | > 30 µM (inactive) | > 30 µM (inactive) | 0.583 µM (active) | > 30 µM (inactive) | > 30 µM (inactive) | > 30 µM (inactive) | > 30 µM (inactive) | > 30 µM (inactive) | > 30 µM (inactive) | > 30 µM (inactive) | > 30 µM (inactive) | > 30 µM (inactive) |  | 
2 | COc1cc2ncnc3c2cc1OCCCCCN(C)Cc1ccc(Br)cc1N3 [JNJ-26483327] | > 30 µM (inactive) | > 30 µM (inactive) | > 30 µM (inactive) |  | > 30 µM (inactive) | > 30 µM (inactive) | > 30 µM (inactive) | > 30 µM (inactive) | > 30 µM (inactive) | > 30 µM (inactive) | > 30 µM (inactive) | > 30 µM (inactive) | > 30 µM (inactive) | > 30 µM (inactive) | > 30 µM (inactive) | > 30 µM (inactive)
3 | CNC(=O)c1cc(COc2nnc(Nc3ccc(Cl)cc3)c3ccoc23)ccn1 [TELATINIB] | > 30 µM (inactive) | > 30 µM (inactive) | > 30 µM (inactive) | > 30 µM (inactive) | > 30 µM (inactive) | > 30 µM (inactive) | > 30 µM (inactive) |  | > 30 µM (inactive) | > 30 µM (inactive) | > 30 µM (inactive) | > 30 µM (inactive) | > 30 µM (inactive) | > 30 µM (inactive) | > 30 µM (inactive) | > 30 µM (inactive)
4 | Cc1cc(-c2cc(OC(=O)c3ccccc3)ccc2Cl)cc2nnc(Nc3ccc(OCCN4CCCC4)cc3)nc12 [TG100-801] | > 30 µM (inactive) | 1.93 µM | > 30 µM (inactive) | > 30 µM (inactive) | > 30 µM (inactive) | > 30 µM (inactive) | > 30 µM (inactive) |  | > 30 µM (inactive) | > 30 µM (inactive) | > 30 µM (inactive) | > 30 µM (inactive) | > 30 µM (inactive) | > 30 µM (inactive) | > 30 µM (inactive) | > 30 µM (inactive)
5 | N#CCNC(=O)c1ccc(-c2ccnc(Nc3ccc(N4CCOCC4)cc3)n2)cc1 [MOMELOTINIB] | > 30 µM (inactive) | > 30 µM (inactive) | > 30 µM (inactive) | > 30 µM (inactive) | > 30 µM (inactive) |  | > 30 µM (inactive) | > 30 µM (inactive) | > 30 µM (inactive) | > 30 µM (inactive) | > 30 µM (inactive) | 0.286 µM (active) | > 30 µM (inactive) |  |  | 
6 | CC(C)(O)CC(=O)NCCn1ccc2ncnc(Nc3ccc(Oc4cccc(C(F)(F)F)c4)c(Cl)c3)c21 [TAK-285] | > 30 µM (inactive) | > 30 µM (inactive) | > 30 µM (inactive) | > 30 µM (inactive) | > 30 µM (inactive) | > 30 µM (inactive) | > 30 µM (inactive) |  | > 30 µM (inactive) | > 30 µM (inactive) | > 30 µM (inactive) | > 30 µM (inactive) |  | > 30 µM (inactive) |  | > 30 µM (inactive)
7 | Cc1cc(C(=O)Nc2cc(Oc3ccc4nc(NC(=O)C5CC5)cn4n3)ccc2C)n(C)n1 [TAK-593] | > 30 µM (inactive) | > 30 µM (inactive) | > 30 µM (inactive) | > 30 µM (inactive) | > 30 µM (inactive) | > 30 µM (inactive) | > 30 µM (inactive) |  | > 30 µM (inactive) | > 30 µM (inactive) | > 30 µM (inactive) | > 30 µM (inactive) | > 30 µM (inactive) | > 30 µM (inactive) | > 30 µM (inactive) | > 30 µM (inactive)
8 | C=CCN(/C=C1/C(=O)O[C@H](COC)[C@@]2(C)C1=C(O)C(=O)C1=C2[C@H](OC(C)=O)C[C@]2(C)C(=O)CC[C@@H]12)CC=C [SONOLISIB] | > 30 µM (inactive) | > 30 µM (inactive) | > 30 µM (inactive) | > 30 µM (inactive) | > 30 µM (inactive) | > 30 µM (inactive) | > 30 µM (inactive) |  | > 30 µM (inactive) | > 30 µM (inactive) | > 30 µM (inactive) | > 30 µM (inactive) | > 30 µM (inactive) | > 30 µM (inactive) | > 30 µM (inactive) | > 30 µM (inactive)
9 | CCOc1ccn(-c2ccc(F)cc2)c(=O)c1C(=O)Nc1ccc(Oc2ccnc(N)c2Cl)c(F)c1 [BMS-777607] | > 30 µM (inactive) | > 30 µM (inactive) | > 30 µM (inactive) |  | > 30 µM (inactive) |  | > 30 µM (inactive) | > 30 µM (inactive) | 1.07 µM (active) | > 30 µM (inactive) | > 30 µM (inactive) | > 30 µM (inactive) | > 30 µM (inactive) | > 30 µM (inactive) | > 30 µM (inactive) | > 30 µM (inactive)
10 | Cc1c(Cn2c(C)nc3c(C(=O)O)cc(N4CCOCC4)cc32)cccc1C(F)(F)F [GSK-2636771] | > 30 µM (inactive) | > 30 µM (inactive) | > 30 µM (inactive) | > 30 µM (inactive) | > 30 µM (inactive) | > 30 µM (inactive) | > 30 µM (inactive) |  | > 30 µM (inactive) | > 30 µM (inactive) | > 30 µM (inactive) | > 30 µM (inactive) | > 30 µM (inactive) | > 30 µM (inactive) | > 30 µM (inactive) | > 30 µM (inactive)
11 | CN1CCN(c2nc(C3=C(c4c[nH]c5ccccc45)C(=O)NC3=O)c3ccccc3n2)CC1 [SOTRASTAURIN] | > 30 µM (inactive) | > 30 µM (inactive) | > 30 µM (inactive) | > 30 µM (inactive) | > 30 µM (inactive) | > 30 µM (inactive) | > 30 µM (inactive) |  | > 30 µM (inactive) | > 30 µM (inactive) | > 30 µM (inactive) | > 30 µM (inactive) | > 30 µM (inactive) | > 30 µM (inactive) | > 30 µM (inactive) | 
